Laboratory results as given in patent publication US7008636B2, “2,3,5-substituted biphenyls useful in the treatment of insulin resistance and hyperglycemia” (Wyeth, priority 1998, dated 2006).

Row | SMILES | melting point
1 | CCCCCCCCCCCCNC(=O)c1cc(-c2cccc(Cl)c2)c(OCC(=O)O)c(-c2cccc(Cl)c2)c1 [Example 33, (3,3″-Dichloro-5′-dodecylcarbamoyl-[1,1′;3′,1″]terphenyl-2′-yloxy)-acetic acid] | 151 to 156 °C
2 | CCCCCCCCCCCCNC(=O)c1cc(Br)c(OCC(=O)O)c(-c2cccc(Cl)c2)c1 [Example 34, (3-Bromo-3′-chloro-5-dodecylcarbamoyl-biphenyl-2-yloxy)-acetic acid] | > 100 °C (dec.)
3 | O=C(O)COc1c(-c2ccccc2)cc([N+](=O)[O-])cc1-c1ccccc1 [Example 38, (5′-Nitro-[1,1′;3′,1″]terphenyl-2′-yloxy)-acetic acid] | 153.5 to 156 °C
4 | COc1cc(-c2ccccc2)c(OCC(=O)O)c(-c2ccccc2)c1 [Example 39, (5′-Methoxy-[1,1′;3′,1″]terphenyl-2′-yloxy)acetic acid] | 143 to 145 °C
5 | O=C(O)COc1c(-c2ccccc2)cc(Br)cc1-c1ccccc1 [Example 40, (5′-Bromo-[1,1′;3′,1″]terphenyl-2′-yloxy)-acetic acid] | > 50 °C (dec.)
6 | O=C(O)COc1c(-c2ccccc2)cc2oc3ccccc3c2c1-c1ccccc1 [Example 42, (1,3-Diphenyl-dibenzofuran-2-yloxy)-acetic acid] | > 120 °C (dec.)
7 | O=C(O)COc1c(Br)cc2oc(C(=O)c3ccccc3)cc2c1Br [Example 43, (2-Benzoyl-4,6-dibromo-benzofuran-5-yloxy)acetic acid] | 179 to 181 °C
8 | CCCCOc1cc(-c2ccccc2)c(OCC(=O)O)c(-c2ccccc2)c1 [Example 44, (5′-Butoxy-[1,1′;3′,1″]terphenyl-2′-yloxy)acetic acid] | 92 to 94 °C
9 | CCCCCCCCOc1cc(-c2ccccc2)c(OCC(=O)O)c(-c2ccccc2)c1 [Example 45, (5′-Octyloxy-[1,1′;3′,1″]terphenyl-2′-yloxy)acetic acid] | 82 to 84 °C
10 | O=C(O)COc1c(Br)cc(C(=O)NCCc2ccccn2)cc1-c1cccc(Cl)c1 [Example 56, [3-Bromo-3′-chloro-5-(2-pyridin-2-yl-ethylcarbamoyl)-biphenyl-2-yloxy]acetic acid] | > 102 °C (dec.)
11 | O=C(O)COc1c(-c2cccc(Cl)c2)cc(C(=O)NCCCC2CCCC2)cc1-c1cccc(C(F)(F)F)c1 [Example 61, [3″-Chloro-5′-(3-cyclopentyl-propylcarbamoyl)-3-trifluoromethyl-[1,1′;3′,1″]-terphenyl-2′-yloxy]acetic acid] | 173 to 175 °C
12 | O=C(O)COc1c(Br)cc(C(=O)NCCCC2CCCC2)cc1-c1cccc(Cl)c1 [Example 62, [3-Bromo-3′-chloro-5-(3-cyclopentyl-propylcarbamoyl)-biphenyl-2-yloxy]acetic acid] | > 135 °C (dec.)
13 | COc1ccc(-c2cc(C(=O)NCCc3ccccn3)cc(-c3cccc(C(F)(F)F)c3)c2OCC(=O)O)cc1 [Example 65, [4″-Methoxy-5′-(2-pyridin-2-yl-ethylcarbamoyl)-3-trifluoromethyl-[1,1′;3′,1″]-terphenyl-2′-yloxy]acetic acid] | > 105 °C (dec.)
14 | COc1ccc(-c2cc(C(=O)NCCCC3CCCC3)cc(-c3cccc(C(F)(F)F)c3)c2OCC(=O)O)cc1 [Example 66, [5′-(3-Cyclopentyl-propylcarbamoyl)-4″-methoxy-3-trifluoromethyl-[1,1′;3′,1″]-terphenyl-2′-yloxy]acetic acid] | > 114 °C (dec.)
15 | COc1ccc(-c2cc(C(=O)NCCc3ccccn3)cc(-c3ccccc3F)c2OCC(=O)O)cc1 [Example 70, [2-Fluoro-4″-methoxy-5′-(2-pyridin-2-yl-ethylcarbamoyl)-[1,1′;3′,1″]-terphenyl-2′-yloxy]acetic acid] | > 102 °C (dec.)
16 | O=C(O)COc1c(Br)cc(C(=O)NCCc2ccccn2)cc1-c1ccccc1F [Example 72, [3-Bromo-2′-fluoro-5-(2-pyridin-2-yl-ethylcarbamoyl)-biphenyl-2-yloxy]acetic acid] | > 154 °C (dec.)
17 | O=C(O)COc1c(Br)cc(C(=O)NCCCc2ccccc2)cc1-c1ccccc1F [Example 73, [3-Bromo-2′-fluoro-5-(3-phenyl-propylcarbamoyl)-biphenyl-2-yloxy]acetic acid] | > 90 °C (dec.)
18 | COc1ccc(-c2cc(C(=O)NCCCC3CCCC3)cc(-c3ccccc3F)c2OCC(=O)O)cc1 [Example 74, [5′-(3-Cyclopentyl-propylcarbamoyl)-2-fluoro-4″-methoxy-[1,1′;3′,1″]-terphenyl-2′-yloxy]acetic acid] | > 97 °C (dec.)
19 | O=C(O)COc1c(Br)cc(C(=O)NCCCC2CCCC2)cc1-c1ccccc1F [Example 75, [3-Bromo-5-(3-cyclopentyl-propylcarbamoyl)-2′-fluoro-biphenyl-2-yloxy]acetic acid] | > 127 °C (dec.)
20 | COc1ccc(-c2cc(C(=O)NCCCCCCCCc3ccccc3)cc(-c3ccccc3F)c2OCC(=O)O)cc1 [Example 76, [2-Fluoro-4″-methoxy-5′-(8-phenyl-octylcarbamoyl)-[1,1′;3′,1″]-terphenyl-2′-yloxy]acetic acid] | > 84 °C (dec.)
21 | O=C(O)COc1c(Br)cc(C(=O)NCCCCCCCCc2ccccc2)cc1-c1ccccc1F [Example 77, [3-Bromo-2′-fluoro-5-(8-phenyl-octylcarbamoyl)-biphenyl-2-yloxy]acetic acid] | > 79 °C (dec.)

The remaining lines, values ahead:

Row | melting point | SMILES
22 | 82 to 83.1 °C | O=C(O)COc1c(-c2ccccc2)cc(C(=O)NCCCCCCCCc2ccccc2)cc1-c1cc(Cl)cc(Cl)c1 [Example 27, [3,5-Dichloro-5′-(8-phenyl-octylcarbamoyl)-[1,1′;3′,1″]terphenyl-2′-yloxy]-acetic acid]
23 | 165 to 167 °C | O=C(O)COc1c(-c2cccc(Cl)c2)cc(C(=O)NCCCCCCCCc2ccccc2)cc1-c1cccc(Cl)c1 [Example 35, [3,3″-Dichloro-5′-(8-phenyl-octylcarbamoyl)-[1,1′;3′,1″]terphenyl-2′-yloxy]-acetic acid]
24 | > 68 °C (dec.) | O=C(O)COc1c(-c2ccccc2)cc(-c2ccccc2)cc1-c1ccccc1 [Example 41, [(5′-Phenyl[1,1′:3′,1″-terphenyl]-2′-yl)oxy]acetic acid]
25 | > 94 °C (dec.) | O=C(O)COc1c(-c2cccc(Cl)c2)cc(C(=O)NCCc2ccccn2)cc1-c1cccc(Cl)c1 [Example 52, [3,3″-Dichloro-5′-(2-pyridin-2-yl-ethylcarbamoyl)-[1,1′;3′,1″]terphenyl-2′-yloxy]acetic acid]
26 | > 67 °C (dec.) | O=C(O)COc1c(-c2cccc(Cl)c2)cc(C(=O)N(CCc2ccccc2)Cc2ccccc2)cc1-c1cccc(Cl)c1 [Example 53, [5′-(Benzyl-phenethyl-carbamoyl)-3,3″-Dichloro-[1,1′;3′,1″]terphenyl-2′-yloxy]acetic acid]
27 | > 164 °C (dec.) | O=C(O)COc1c(-c2cccc(Cl)c2)cc(C(=O)NCCCCc2ccccc2)cc1-c1cccc(Cl)c1 [Example 54, [3,3″-Dichloro-5′-(4-phenyl-butylcarbamoyl)-[1,1′;3′,1″]terphenyl-2′-yloxy]acetic acid]
28 | > 72 °C (dec.) | O=C(O)COc1c(Br)cc(C(=O)N(CCc2ccccc2)Cc2ccccc2)cc1-c1cccc(Cl)c1 [Example 55, [5-(Benzyl-phenethyl-carbamoyl)-3-bromo-3′-chloro-biphenyl-2-yloxy]acetic acid]
29 | > 75 °C (dec.) | O=C(O)COc1c(-c2cccc(Cl)c2)cc(C(=O)N(CCc2ccccc2)Cc2ccccc2)cc1-c1cccc(C(F)(F)F)c1 [Example 57, [5′-(Benzyl-phenethyl-carbamoyl)-3″-chloro-3-trifluoromethyl-[1,1′;3′,1″]terphenyl-2′-yloxy]acetic acid]
30 | > 92 °C (dec.) | O=C(O)COc1c(-c2cccc(Cl)c2)cc(C(=O)NCCc2ccccn2)cc1-c1cccc(C(F)(F)F)c1 [Example 58, [3″-Chloro-5′-(2-pyridin-2-yl-ethylcarbamoyl)-3-trifluoromethyl-[1,1′;3′,1″]terphenyl-2′-yloxy]acetic acid]
31 | > 106 °C (dec.) | O=C(O)COc1c(-c2cccc(Cl)c2)cc(C(=O)NCCCc2ccccc2)cc1-c1cccc(C(F)(F)F)c1 [Example 59, [3″-Chloro-5′-(3-phenyl-propylcarbamoyl)-3-trifluoromethyl-[1,1′;3′,1″]terphenyl-2′-yloxy]acetic acid]
32 | > 102 °C (dec.) | O=C(O)COc1c(-c2cccc(Cl)c2)cc(C(=O)NCCc2ccc(Br)cc2)cc1-c1cccc(C(F)(F)F)c1 [Example 63, {5′-[2-(4-Bromo-phenyl)-ethylcarbamoyl]-3″-chloro-3-trifluoromethyl-[1,1′;3′,1″]-terphenyl-2′-yloxy}acetic acid]
33 | > 82 °C (dec.) | COc1ccc(-c2cc(C(=O)N(CCc3ccccc3)Cc3ccccc3)cc(-c3cccc(C(F)(F)F)c3)c2OCC(=O)O)cc1 [Example 67, [5′-(Benzyl-phenethyl-carbamoyl)-4″-methoxy-3-trifluoromethyl-[1,1′;3′,1″]-terphenyl-2′-yloxy]acetic acid]
34 | > 73 °C (dec.) | COc1ccc(-c2cc(C(=O)N(CCc3ccccc3)Cc3ccccc3)cc(-c3ccccc3F)c2OCC(=O)O)cc1 [Example 68, [5′-(Benzyl-phenethyl-carbamoyl)-2-fluoro-4″-methoxy-[1,1′;3′,1″]-terphenyl-2′-yloxy]acetic acid]
35 | > 85 °C (dec.) | O=C(O)COc1c(Br)cc(C(=O)N(CCc2ccccc2)Cc2ccccc2)cc1-c1ccccc1F [Example 69, [5-(Benzylphenethyl-carbamoyl)-3-bromo-2′-fluoro-biphenyl-2-yloxy]acetic acid]
36 | > 89 °C (dec.) | COc1ccc(-c2cc(C(=O)NCCCc3ccccc3)cc(-c3ccccc3F)c2OCC(=O)O)cc1 [Example 71, [2-Fluoro-4″-methoxy-5′-(3-phenyl-propylcarbamoyl)-[1,1′;3′,1″]-terphenyl-2′-yloxy]acetic acid]
37 | > 72 °C (dec.) | COc1ccc(-c2cc(C(=O)NCCCCCCc3ccccc3)cc(-c3ccccc3F)c2OCC(=O)O)cc1 [Example 78, [2-Fluoro-4″-methoxy-5′-(6-phenyl-hexylcarbamoyl)-[1,1′;3′,1″]-terphenyl-2′-yloxy]acetic acid]
